# Laboratory results published in patent US20060148735A1, “Methods for treating, preventing, or reducing cardiac disorders using fadd inhibitors” (priority 2002, published 2006).
# “Also recorded” adds a separate entry of the source. Where a SMILES comes first, the peptide text is derived from it. The star is where a group is joined. Cbz = O=C(OCc1ccccc1)*; CH2F = FC*
# How the values were obtained:
# NF-κB = assay: TNF-α-induced NF-κB activation in neonatal rat cardiomyocytes (p65 translocation, IκB-α phosphorylation, EMSA); type: cell-based; settings: 50 μM
# Procedure: Cardiomyocytes (CM) were prepared from 1-2 day-old rats as described by Matsui et al. (Circulation 100:2373-9, 1999). All CM were incubated in RPMI-1640 containing 5% FBS and 10% horse serum. Neonatal CM grown in 60 mm dishes were infected with Ad.EGFP.β-gal (MOI 20), Ad.FADD-wt, or Ad.FADD-dn (MOI 20), for 24 hours prior to exposure to transient hypoxic conditions, lasting up to 24 hours. To expose CM to transient hypoxia conditions, CM media is changed to N2/CO2-saturated serum-free F10 and cells are placed in an airtight N2-saturated container at 37° C. for up to 24 hours. Hypoxia was confirmed by oxymetry measurements. To examine the role of FADD in inflammatory signaling, cultured neonatal rat CM were stimulated with TNF-α (50 ng/ml) for 4 hours. Nuclear and cytoplasmic extracts were prepared. […]
# Cells were harvested and nuclear extracts prepared as above. […] Nuclear proteins and oligonucleotide were then separated with native PAGE and detected by autoradiography.
# Proteins were separated by SDS-PAGE performed under reducing conditions on 7.5%, 10%, and 12% separation gels with a 4% stacking gel. […] After washing, membranes were incubated with horseradish peroxidase-conjugated secondary antibody and immunoreactive bands detected by chemiluminescence.
# caspase-9 = assay: Caspase-9 activity (colorimetric assay) in cardiomyocytes; type: cell-based, rat; settings: pretreatment or over-expression
# Procedure: (§1) Cardiomyocytes (CM) were prepared from 1-2 day-old rats as described by Matsui et al. (Circulation 100:2373-9, 1999). All CM were incubated in RPMI-1640 containing 5% FBS and 10% horse serum. Neonatal CM grown in 60 mm dishes were infected with Ad.EGFP.β-gal (MOI 20), Ad.FADD-wt, or Ad.FADD-dn (MOI 20), for 24 hours prior to exposure to transient hypoxic conditions, lasting up to 24 hours. To expose CM to transient hypoxia conditions, CM media is changed to N2/CO2-saturated serum-free F10 and cells are placed in an airtight N2-saturated container at 37° C. for up to 24 hours. Hypoxia was confirmed by oxymetry measurements. To examine the role of FADD in inflammatory signaling, cultured neonatal rat CM were stimulated with TNF-α (50 ng/ml) for 4 hours. Nuclear and cytoplasmic extracts were prepared.
# (§2) Optionally, apoptosis may also be measured by the protein or gene expression, or alternatively, by the activity of surrogate markers of apoptosis including, for example, caspase activity. Caspase-3, -8, and -9 activity may be examined by using the caspase colorimetric assay kit from R&D Systems according to the manufacturer's protocol. Briefly, cells are scraped, collected, washed with cold PBS, and lysed in cold lysis buffer. […] Release of the pNA cleavage product is quantitated in a microplate reader (Bio-Rad) at a wavelength of 405 nm.
# caspase-8 = assay: Caspase-8 activity (colorimetric assay) in cardiomyocytes; type: cell-based, rat; settings: listed as zIETD-fink
# Procedure: as §1, §2
# [1] = tested on: rat neonatal cardiomyocytes; assay: Hypoxia/serum-deprivation-induced cardiomyocyte apoptosis (cell death ELISA, DNA laddering); type: cell-based
# Procedure: as §1
# For determination of DNA laddering, cellular DNA is extracted with phenol:chloroform, treated with RNase, ^32P-labeled, and then visualized by electrophoresis in 1.8% agarose gel.
# Histone-associated DNA fragments were quantified by cell death ELISA as described in the manufacturer's protocol. DNA fragmentation data were corrected for background and normalized to the result with normoxic cardiomyocytes.
SMILES,reversal of the FADD effect on NF-κB (NF-κB),hypoxia/SD-induced activation of caspase-9 (caspase-9),hypoxia/SD-induced caspase-8 activation (caspase-8),CM apoptosis in response to hypoxia/SD ([1]; 4 h hypoxia/SD),"hypoxia/SD-induced apoptosis (ELISA for histone-associated DNA fragmentation, DNA laddering) ([1]; concentrations ranging from 50 to 100 μM)"
CC[C@H](C)[C@H](NC(=O)OCc1ccccc1)C(=O)N[C@@H](CCC(=O)OC)C(=O)N[C@H](C(=O)N[C@@H](CC(=O)OC)C(=O)CF)[C@@H](C)O [zIETD-fmk] (Cbz-IE(OMe)TD(OMe)-CH2F),failed to reverse,completely inhibited,completely inhibited; also recorded: effectively blocked,completely inhibited,–
COC(=O)C[C@H](NC(=O)[C@H](C)NC(=O)[C@@H](NC(=O)OCc1ccccc1)C(C)C)C(=O)CF [zVAD-fmk] (Cbz-Val-Ala-Asp(OMe)-CH2F),–,–,–,–,inhibited
